Data as given in patent US20210101881A1 (Ancureall Pharmaceutical (Shanghai) Co., Ltd., priority 2018, published 2021).

System: MOLM13 cells
Test: Growth inhibition of CDK9-positive cell line MOLM13 in vitro (CCK8/MTT assay)
Format: cell-based, human
Details: Homo sapiens, MOLM-13, read-out: IC50 of the compound for inhibiting cell growth, MOLM13 cells

SMILES | IC50 [nM]
CN1CCN(c2cccc(Nc3ncc(Cl)c(-n4cc(C(N)=O)c5ccccc54)n3)c2)CC1 [Compound 118, 1-{5-chloro-2-[3-(4-methyl-piperazin-1-yl)-phenylamino]-pyrimidin-4-yl}-1H-indole-3-carboxamide] | 1 to 10

Same assay, conditions: Homo sapiens, MOLM-13; MOLM13 cells, cultured 3 to 6 days, CCK8; read-out: IC50 of the compound for inhibiting cell growth, MOLM13 cells

SMILES | IC50 [nM]
CNC(=O)c1cn(-c2ccnc(Nc3ccc(N4CCNCC4)cc3Cl)n2)c2ccccc12 [Compound 102, 1-[2-(2-chloro-4-piperazin-1-yl-phenylamino)-pyrimidin-4-yl]-1H-indole-3-carboxmethylamide] | > 1000
CNC(=O)c1cn(-c2ccnc(Nc3ccc(N4CCNCC4)c(Cl)c3)n2)c2ccccc12 [Compound 103, 1-[2-(3-chloro-4-piperazin-1-yl-phenylamino)-pyrimidin-4-yl]-1H-indole-3-carboxmethylamide] | 100 to 1000
CNC(=O)c1cn(-c2ccnc(Nc3ccc(C4CCN(C)CC4)cc3)n2)c2ccccc12 [Compound 104, 1-{2-[4-(1-methyl-piperidin-4-yl)-phenylamino]-pyrimidin-4-yl}-1H-indole-3-carboxmethylamide] | 10 to 100
CNC(=O)c1cn(-c2ccnc(Nc3ccc(C4CCNCC4)cc3)n2)c2ccccc12 [Compound 105, 1-[2-(4-piperidin-4-yl-phenylamino)-pyrimidin-4-yl]-1H-indole-3-carboxmethylamide] | 10 to 100
CNC(=O)c1cn(-c2ccnc(Nc3cccc(N4CCNCC4)c3)n2)c2ccccc12 [Compound 107, 1-[2-(3-piperazin-1-yl-phenylamino)-pyrimidin-4-yl]-1H-indole-3-carboxmethylamide] | 10 to 100
CNC(=O)c1cn(-c2ccnc(Nc3ccc(S(N)(=O)=O)cc3)n2)c2ccccc12 [Compound 108, 1-[2-(4-sulfamoyl-phenylamino)-pyrimidin-4-yl]-1H-indole-3-carboxmethylamide] | > 1000
CN(C)CCN(C)c1cccc(Nc2nccc(-n3cc(C(N)=O)c4ccccc43)n2)c1 [Compound 110, 1-(2-{3-[(2-dimethylamino-ethyl)-methyl-amino]-phenylamino}-pyrimidin-4-yl)-1H-indole-3-carboxamide] | 1 to 10
NC(=O)c1cn(-c2ccnc(Nc3cccc(N4CCNCC4)c3)n2)c2ccccc12 [Compound 111, 1-[2-(3-piperazin-1-yl-phenylamino)-pyrimidin-4-yl]-1H-indole-3-carboxamide] | 1 to 10
CN1CCCN(c2cccc(Nc3nccc(-n4cc(C(N)=O)c5ccccc54)n3)c2)CC1 [Compound 112, 1-{2-[3-(4-methyl-[1,4]homopiperazin-1-yl)-phenylamino]-pyrimidin-4-yl}-1H-indole-3-carboxamide] | 1 to 10
CN1CCN(c2cccc(Nc3nccc(-n4cc(C(N)=O)c5ccccc54)n3)c2)CC1 [Compound 113, 1-{2-[3-(4-methyl-piperazin-1-yl)-phenylamino]-pyrimidin-4-yl}-1H-indole-3-carboxamide] | < 1
CN1CCN(c2cc(F)cc(Nc3nccc(-n4cc(C(N)=O)c5ccccc54)n3)c2)CC1 [Compound 114, 1-{2-[3-fluoro-5-(4-methyl-piperazin-1-yl)-phenylamino]-pyrimidin-4-yl}-1H-indole-3-carboxamide] | 1 to 10
CN1CCN(c2cc(Nc3ncc(F)c(-n4cc(C(N)=O)c5ccccc54)n3)ccc2F)CC1 [Compound 116, 1-{5-fluoro-2-[4-fluoro-3-(4-methyl-piperazin-1-yl)-phenylamino]-pyrimidin-4-yl}-1H-indole-3-carboxamide] | 10 to 100
Cc1ccc(Nc2ncc(F)c(-n3cc(C(N)=O)c4ccccc43)n2)cc1N1CCN(C)CC1 [Compound 117, 1-{5-fluoro-2-[4-methyl-3-(4-methyl-piperazin-1-yl)-phenylamino]-pyrimidin-4-yl}-1H-indole-3-carboxamide] | 10 to 100
CN1CCN(c2cc(Nc3ncc(Cl)c(-n4cc(C(N)=O)c5ccccc54)n3)ccc2F)CC1 [Compound 119, 1-{5-chloro-2-[4-fluoro-3-(4-methyl-piperazin-1-yl)-phenylamino]-pyrimidin-4-yl}-1H-indole-3-carboxamide] | 10 to 100
CN1CCN(c2cc(Nc3ncc(Cl)c(-n4cc(C(N)=O)c5ccccc54)n3)ccc2Cl)CC1 [Compound 120, 1-{5-chloro-2-[4-chloro-3-(4-methyl-piperazin-1-yl)-phenylamino]-pyrimidin-4-yl}-1H-indole-3-carboxamide] | 10 to 100
Cc1ccc(Nc2ncc(Cl)c(-n3cc(C(N)=O)c4ccccc43)n2)cc1N1CCN(C)CC1 [Compound 121, 1-{5-chloro-2-[4-methyl-3-(4-methyl-piperazin-1-yl)-phenylamino]-pyrimidin-4-yl}-1H-indole-3-carboxamide] | 10 to 100
COc1ccc(Nc2ncc(Cl)c(-n3cc(C(N)=O)c4ccccc43)n2)cc1N1CCN(C)CC1 [Compound 122, 1-{5-chloro-2-[4-methoxy-3-(4-methyl-piperazin-1-yl)-phenylamino]-pyrimidin-4-yl}-1H-indole-3-carboxamide] | 10 to 100
COc1cnc(Nc2cccc(N3CCN(C)CC3)c2)nc1-n1cc(C(N)=O)c2ccccc21 [Compound 123, 1-{5-methoxy-2-[3-(4-methyl-piperazin-1-yl)-phenylamino]-pyrimidin-4-yl}-1H-indole-3-carboxamide] | 1 to 10

SMILES | IC50 [nM]
Cc1cnc(Nc2cccc(N3CCN(C)CC3)c2)nc1-n1cc(C(N)=O)c2ccccc21 [Compound 124, 1-{5-methyl-2-[3-(4-methyl-piperazin-1-yl)-phenylamino]-pyrimidin-4-yl}-1H-indole-3-carboxamide] | 1 to 10
COCCN1CCN(c2cccc(Nc3nccc(-n4cc(C(N)=O)c5ccccc54)n3)c2)CC1 [Compound 126, 1-(2-{3-[4-(2-methoxy-ethyl)-piperazin-1-yl]-phenylamino]-pyrimidin-4-yl}-1H-indole-3-carboxamide] | 1 to 10
C=CC(=O)N1CCN(c2cccc(Nc3nccc(-n4cc(C(N)=O)c5ccccc54)n3)c2)CC1 [Compound 127, 1-{2-[3-(4-acryloyl-piperazin-1-yl)-phenylamino]-pyrimidin-4-yl}-1H-indole-3-carboxamide] | 10 to 100
CCC(=O)N1CCN(c2cccc(Nc3nccc(-n4cc(C(N)=O)c5ccccc54)n3)c2)CC1 [Compound 128, 1-{2-[3-(4-propionyl-piperazin-1-yl)-phenylamino]-pyrimidin-4-yl}-1H-indole-3-carboxamide] | 10 to 100
CN(C)CCOc1cccc(Nc2nccc(-n3cc(C(N)=O)c4ccccc43)n2)c1 [Compound 129, 1-{2-[3-(2-dimethylamino-ethoxy)-phenylamino]-pyrimidin-4-yl}-1H-indole-3-carboxamide] | 10 to 100
NC(=O)c1cn(-c2ccnc(Nc3ccccn3)n2)c2ccccc12 [Compound 130, 1-[2-(pyridin-2-ylamino)-pyrimidin-4-yl]-1H-indole-3-carboxamide] | > 1000
COc1ccnc(Nc2nccc(-n3cc(C(N)=O)c4ccccc43)n2)c1 [Compound 131, 1-[2-(4-methoxy-pyridin-2-ylamino)-pyrimidin-4-yl]-1H-indole-3-carboxamide] | > 1000
Cc1cc(C)nc(Nc2nccc(-n3cc(C(N)=O)c4ccccc43)n2)c1 [Compound 132, 1-[2-(4,6-dimethyl-pyridin-2-ylamino)-pyrimidin-4-yl]-1H-indole-3-carboxamide] | > 1000
NC(=O)c1cn(-c2ccnc(Nc3ccc(N4CCNCC4)cn3)n2)c2ccccc12 [Compound 133, 1-[2-(5-piperazin-1-yl-pyridin-2-ylamino)-pyrimidin-4-yl]-1H-indole-3-carboxamide] | > 1000
NC(=O)c1cn(-c2nc(Nc3ccc(N4CCNCC4)cn3)ncc2Cl)c2ccccc12 [Compound 134, 1-[5-chloro-2-(5-piperazin-1-yl-pyridin-2-ylamino)-pyrimidin-4-yl]-1H-indole-3-carboxamide] | > 1000
NC(=O)c1cn(-c2ccnc(Nc3ccc(N4CCNCC4)cc3)n2)c2ncccc12 [Compound 135, 1-[2-(4-piperazin-1-yl-phenylamino)-pyrimidin-4-yl]-1H-pyrrolo[2,3-b]pyridine-3-carboxamide] | 100 to 1000
Cc1cc(Nc2nccc(-n3cc(C(N)=O)c4cccnc43)n2)ccc1N1CCN(C)CC1 [Compound 136] | 100 to 1000
NC(=O)c1cn(-c2nc(Nc3cccc(N4CCOCC4)c3)ncc2F)c2ccccc12 [Compound 137, 1-[5-fluoro-2-(3-morpholin-4-yl-phenylamino)-pyrimidin-4-yl]-1H-indole-3-carboxamide] | 1 to 10
NC(=O)c1nn(-c2ccnc(Nc3cccc(N4CCNCC4)c3)n2)c2ccccc12 [Compound 138, 1-[2-(3-piperazin-1-yl-phenylamino)-pyrimidin-4-yl]-1H-indazole-3-carboxamide] | 1 to 10
NC(=O)c1cn(-c2nc(Nc3cccc(N4CCC(N5CCOCC5)CC4)c3)ncc2F)c2ccccc12 [Compound 139, 1-{5-fluoro-2-[3-(4-morpholin-4-yl-piperidin-1-yl)-phenylamino]-pyrimidin-4-yl}-1H-indole-3-carboxamide] | 1 to 10
CCN1CCN(c2cccc(Nc3ncc(F)c(-n4cc(C(N)=O)c5ccccc54)n3)c2)CC1 [Compound 142, 1-{2-[3-(4-ethyl-piperazin-1-yl)-phenylamino]-5-fluoro-pyrimidin-4-yl}-1H-indole-3-carboxamide] | < 1
CN1CCN(Cc2cccc(Nc3ncc(F)c(-n4cc(C(N)=O)c5ccccc54)n3)c2)CC1 [Compound 143, 1-{5-fluoro-2-[3-(4-methyl-piperazin-1-ylmethyl)-phenylamino]-pyrimidin-4-yl}-1H-indole-3-carboxamide] | 10 to 100

Same assay, conditions: MOLM13 cells, cultured 3 to 6 days, CCK8; read-out: IC50 of the compound for inhibiting cell growth, MOLM13 cells

SMILES | IC50 [nM]
CNC(=O)c1cn(-c2ccnc(Nc3cccc(N4CCN(C)CC4)c3)n2)c2ccccc12 [Compound 106, 1-{2-[3-(4-methyl-piperazin-1-yl)-phenylamino]-pyrimidin-4-yl}-1H-indole-3-carboxmethylamide] | 10 to 100
